Results: patent US3962282A, “Juvenile hormone mimics” (priority 1974, dated 1976)

What was measured:
[1] = tested on: Mexican bean beetle; experiment: topical application to Mexican bean beetle, fourth larval stage, maturation inhibition; type: in vivo
Procedure, shortened: (§1)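 Compounds applied topically, 1 μL acetone solution at 10%, 1% or 0.5%, to ten specimens per insect per concentration, alongside acetone and untreated controls; scored after about 8–10 days. Juvenile/adult characteristics rated 0–3 (Tenebrio 0–4), ≥2 meaning unable to reproduce; unreported specimens died during metamorphosis.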

[2] = tested on: wax moth; experiment: topical application to wax moth, fifth larval stage, maturation inhibition; type: in vivo
Procedure, shortened: as §1

[3] = tested on: milkweed bug; experiment: topical application to milkweed bug, fourth nymphal stage, maturation inhibition; type: in vivo; settings: rating scale 0-3
Procedure, shortened: as §1

[4] = tested on: Tenebrio molitor pupae; experiment: topical application to Tenebrio molitor pupae, maturation inhibition; type: in vivo
Procedure, shortened: as §1

[5] = tested on: housefly larvae; experiment: topical application to housefly larvae; type: in vivo, Musca domestica
Procedure: The compounds were applied in acetone solution at concentrations of 10 percent, 1 percent and 0.5 percent. One microliter of the acetone solution was applied to each test specimen. Ten test specimens were employed for each insect at each concentration and compared to ten acetone controls and ten zero controls. Approximately eight to ten days were required before results could be ascertained.
A number of compounds were tested against housefly larvae by topical application in an acetone solution using the method described above for the primary test against Tenebrio, milkweed bug, wax moth, and Mexican bean bettel. The results with the first compound are reported on a scale of 0 to 3 with 0 indicating a normal adult, 1 indicating an adult with deformed wings, 2 indicating a partially emerged adult, and 3 indicating no evidence of emergence. The results for the other compounds are reported onn a scale of 0 to 2 with 0 indicating a normal adult, 1 indicating a partially emerged adult and 2 indicating no evidence of emergence.

[6] = 10% in acetone, 1 microliter topical, rating scale 0 (no effect) to 3 (maximum)
[7] = 10% in acetone, 1 microliter topical, rating scale 0 (no effect) to 4 (maximum)

Row | SMILES | number of specimens in rating 0 ([1]; 0.5%, rating scale 0-3) [specimens] | number of specimens in rating 0 ([1]; 1%, rating scale 0-3) [specimens] | number of specimens in rating 0 [1, 6] [specimens] | number of specimens in rating 3 ([1]; 10%, rating scale 0-3) [specimens] | number of specimens in rating 0 ([2]; 0.5%, rating scale 0-3) [specimens] | number of specimens in rating 0 ([2]; 1%, rating scale 0-3) [specimens] | number of specimens in rating 0 [2, 6] [specimens] | number of specimens in rating 3 ([3]; 0.5%) [specimens] | number of specimens in rating 3 ([3]; 1%) [specimens] | number of specimens in rating 3 ([3]; 10%) [specimens] | number of specimens in rating 0 ([4]; 0.5%, rating scale 0-4) [specimens] | number of specimens in rating 0 ([4]; 1%, rating scale 0-4) [specimens] | number of specimens in rating 0 [4, 7] [specimens] | number of specimens in rating 1 ([3]; 0.5%) [specimens] | number of specimens in rating 4 ([4]; 10%, rating scale 0-4) [specimens] | number of specimens in rating 3 ([1]; 1%, rating scale 0-3) [specimens] | number of specimens in rating 0 ([3]; 0.5%) [specimens] | other results
1 | CC(C)=CCC/C(C)=C/CCc1ccc(Cl)c(Cl)c1 [trans-2,6-dimethyl-9-(3,4-dichlorophenyl)-2,6-nonadiene] | 10 | 10 | 6 | 2 | 10 | 10 | 10 | 10 | 10 | 10 | 10 | 10 | 10 |  |  |  |  | number of specimens in rating 1 ([1]; 10%, rating scale 0-3): 1 specimens; number of specimens in rating 2 ([1]; 10%, rating scale 0-3): 1 specimens; number in rating 0 (normal adult) ([5]; 0.5%, scale 0-3): 3; number in rating 2 (partially emerged adult) ([5]; 0.5%, scale 0-3): 1; number in rating 3 (no evidence of emergence) ([5]; 0.5%, scale 0-3): 6; number in rating 0 (normal adult) ([5]; 1%, scale 0-3): 8; number in rating 3 (no evidence of emergence) ([5]; 1%, scale 0-3): 2; number in rating 0 (normal adult) ([5]; 10%, scale 0-3): 5; number in rating 3 (no evidence of emergence) ([5]; 10%, scale 0-3): 5
2 | CC(=CCCc1ccc2c(c1)OCO2)CCC1OC1(C)C (stereo not drawn) [9-(3,4-methylenedioxyphenyl)-2,6-dimethyl-2,3-epoxy-6-nonene] |  |  |  |  |  |  |  |  | 2 | 7 |  | 1 |  | 2 | 10 |  |  | number of specimens in rating 2 ([3]; 0.5%): 4 specimens; number of specimens in rating 1 ([3]; 1%): 5 specimens; number of specimens in rating 4 ([4]; 0.5%, rating scale 0-4): 10 specimens; number of specimens in rating 4 ([4]; 1%, rating scale 0-4): 9 specimens; number in rating 2 (no evidence of emergence) ([5]; 1%, scale 0-2): 10; number in rating 2 (no evidence of emergence) ([5]; 10%, scale 0-2): 10
3 | CC(C)=CCC/C(C)=C/CCc1cccc(Cl)c1 [trans-2,6-dimethyl-9-(3-chlorophenyl)-2,6-nonadiene] | 10 | 9 |  | 10 | 10 | 7 | 7 | 10 | 10 | 10 | 10 | 10 | 2 |  |  | 1 |  | number of specimens in rating 1 ([2]; 1%, rating scale 0-3): 1 specimens; number of specimens in rating 2 ([2]; 1%, rating scale 0-3): 2 specimens; number of specimens in rating 1 ([2]; 10%, rating scale 0-3): 3 specimens; number of specimens in rating 1 ([4]; 10%, rating scale 0-4): 1 specimens; number of specimens in rating 2 ([4]; 10%, rating scale 0-4): 1 specimens; number of specimens in rating 3 ([4]; 10%, rating scale 0-4): 6 specimens
4 | CC(C)=CCC/C(C)=C\CCc1ccc(Cl)cc1 [cis-9-(4-chlorophenyl)-2,6-dimethyl-2,6-nonadiene] |  |  |  |  |  |  |  |  |  |  |  |  |  |  |  |  |  | number in rating 0 (normal adult) ([5]; 0.5%, scale 0-2): 3; number in rating 1 (partially emerged adult) ([5]; 0.5%, scale 0-2): 3; number in rating 2 (no evidence of emergence) ([5]; 0.5%, scale 0-2): 3; number in rating 0 (normal adult) ([5]; 1%, scale 0-2): 2; number in rating 1 (partially emerged adult) ([5]; 1%, scale 0-2): 2; number in rating 2 (no evidence of emergence) ([5]; 1%, scale 0-2): 4; number in rating 1 (partially emerged adult) ([5]; 10%, scale 0-2): 2; number in rating 2 (no evidence of emergence) ([5]; 10%, scale 0-2): 6
5 | CCOc1cccc(CCC=C(C)CCC=C(C)C)c1 [9-(3-ethoxyphenyl)-2,6-dimethyl-2,6nonadiene] | 10 | 8 | 1 | 7 | 10 | 10 | 10 |  | 2 | 7 | 10 | 8 |  | 1 | 4 |  | 3 | number of specimens in rating 1 ([1]; 1%, rating scale 0-3): 2 specimens; number of specimens in rating 2 ([1]; 10%, rating scale 0-3): 2 specimens; number of specimens in rating 2 ([3]; 0.5%): 2 specimens; number of specimens in rating 2 ([3]; 1%): 7 specimens; number of specimens in rating 1 ([4]; 1%, rating scale 0-4): 2 specimens; number of specimens in rating 1 ([4]; 10%, rating scale 0-4): 1 specimens; number of specimens in rating 3 ([4]; 10%, rating scale 0-4): 5 specimens
6 | CC(C)=CCCC(C)=CCCc1cc2c(cc1Cl)OCO2 [9-(2-CHLORO-4,5-METHYLENEDIOXYPHENYL)-2,6-DIMETHYL-2,6-NONADIENE] | 10 | 9 | 7 | 10 | 10 | 10 | 8 |  | 6 | 10 | 10 | 10 | 10 | 1 |  | 10 | 9 | number of specimens in rating 2 ([1]; 1%, rating scale 0-3): 1 specimens; number of specimens in rating 1 ([1]; 10%, rating scale 0-3): 3 specimens; number of specimens in rating 2 ([2]; 10%, rating scale 0-3): 1 specimens; number of specimens in rating 0 ([3]; 1%): 3 specimens; number of specimens in rating 1 ([3]; 1%): 1 specimens
7 | CC(=CCCc1ccc2c(c1)OCO2)CCCC(C)C [2,6-DIMETHYL-9-(3,4-METHYLENEDIOXYPHENYL)-6-NONENE] |  |  |  | 10 | 9 | 9 | 10 | 3 | 8 | 7 | 3 |  | 1 | 1 | 9 | 10 | 5 | number of specimens in rating 1 ([1]; 0.5%, rating scale 0-3): 1 specimens; number of specimens in rating 2 ([1]; 0.5%, rating scale 0-3): 7 specimens; number of specimens in rating 3 ([1]; 0.5%, rating scale 0-3): 2 specimens; number of specimens in rating 1 ([2]; 0.5%, rating scale 0-3): 1 specimens; number of specimens in rating 1 ([2]; 1%, rating scale 0-3): 1 specimens; number of specimens in rating 0 ([3]; 1%): 1 specimens; number of specimens in rating 1 ([4]; 0.5%, rating scale 0-4): 1 specimens; number of specimens in rating 2 ([4]; 0.5%, rating scale 0-4): 2 specimens; number of specimens in rating 3 ([4]; 0.5%, rating scale 0-4): 2 specimens; number of specimens in rating 4 ([4]; 0.5%, rating scale 0-4): 2 specimens; number of specimens in rating 2 ([4]; 1%, rating scale 0-4): 4 specimens; number of specimens in rating 4 ([4]; 1%, rating scale 0-4): 6 specimens
